Measurements reported in patent US20050101595A1, “N-containing cycloalkyl-substituted amino-thiazole derivatives and pharmaceutical compositions for inhibiting cell proliferation and methods for their use” (PFIZER INC., priority 2003, published 2005).
Where a name gives a salt, the structure may show the parent alone. Read-outs that look alike come from different tables or passages of the source.

How the values were obtained:
[1] = system: HCT-116 cell line; assay: Inhibition of cell growth, tetrazolium salt (MTT) assay; type: cell-based; conditions: for IC50: Homo sapiens, HCT-116, 120 h, MTT, three to five days; for HCT-116 % Inhibition at 0.25 μM: 0.25 μM compound
Summary of the method: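 McCoy's 5A cultures; 4 h pre-incubation; compound dilutions in 0.5% v/v DMSO; 3–5 d, 37° C, 5% CO2; MTT 0.2 mg/mL final, 4 h; formazan dissolved in DMSO, A540; vs 0.5% DMSO vehicle.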

[2] = target: CDK2/Cyclin A (Homo sapiens, UniProt P24941); assay: Inhibition of CDK2/Cyclin A Retinoblastoma Kinase Activity; type: biochemical; conditions: for Ki: apparent Ki, CDK2/proteolyzed cyclin A, Rb fragment substrate, 25 μM ATP; for CDK2 % Inhibition At 0.03 μM: Table 2
Summary of the method: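 Baculovirus-expressed CDK2 complexed with proteolyzed cyclin A (10 or 19 nM), Rb fragment substrate, 25 μM [32P/33P]ATP, HEPES pH 7.4, 30 °C for 60 or 75 min under initial-rate conditions. Filter capture and phosphorimager readout; apparent Ki fitted to competitive or tight-binding competitive inhibition.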

[3] = target: human CDK4 and genetically truncated (1-264) cyclin D3 (Homo sapiens, UniProt P11802); assay: Inhibition of CDK4/Cyclin D Retinoblastoma Kinase Activity; type: biochemical; conditions: for Ki: apparent Ki, CDK4/truncated cyclin D3, Rb fragment substrate, 25 μM ATP
Summary of the method: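 Human CDK4/truncated cyclin D3 (1-264) complex from baculovirus-infected insect cells, 5 nM, phosphorylating Rb fragment (residues 386-928, His-tagged) with 25 μM [32/33P]ATP in HEPES pH 7.4, MgCl2, 2% DMSO at 30° C. for 20 min (60 min for tight binders). Filter-captured radioactivity by phosphorimager; apparent Ki from competitive or tight-binding fits.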

[4] = first HCT-116 column (c4), read-out: HCT-116 IC50
[5] = second HCT-116 column (c5), read-out: HCT-116 IC50
[6] = 0.1 μM compound, HCT-116, Table 3
[7] = 0.1 μM compound, HCT-116, Table 4

Sequence of human CDK4 and genetically truncated (1-264) cyclin D3 (P11802 whole entry, the tested form may be a part): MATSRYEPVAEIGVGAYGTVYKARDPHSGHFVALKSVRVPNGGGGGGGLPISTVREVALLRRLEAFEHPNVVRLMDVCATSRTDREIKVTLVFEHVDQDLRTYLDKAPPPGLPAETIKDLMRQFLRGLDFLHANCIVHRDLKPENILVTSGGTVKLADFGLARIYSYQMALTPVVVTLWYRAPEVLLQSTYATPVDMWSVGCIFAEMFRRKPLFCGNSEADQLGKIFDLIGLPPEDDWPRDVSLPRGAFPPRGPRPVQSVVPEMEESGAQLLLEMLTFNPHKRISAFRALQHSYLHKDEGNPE
Sequence of human CDK4 and genetically truncated (1-264) cyclin D3 (P30281 1-264 partner): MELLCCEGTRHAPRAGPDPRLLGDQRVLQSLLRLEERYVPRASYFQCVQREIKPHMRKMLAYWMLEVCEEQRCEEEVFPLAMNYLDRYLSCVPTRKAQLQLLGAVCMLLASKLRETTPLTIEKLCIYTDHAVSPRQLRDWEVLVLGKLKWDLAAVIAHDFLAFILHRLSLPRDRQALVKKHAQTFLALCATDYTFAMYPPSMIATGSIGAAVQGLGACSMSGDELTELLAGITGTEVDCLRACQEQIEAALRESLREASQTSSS

| SMILES | IC50 [1, 4] [nM] | IC50 [1, 5] [nM] | Ki [2] [nM] | Ki [3] [nM] | other results |
| --- | --- | --- | --- | --- | --- |
| CN(C)CCCc1ccc(S(=O)(=O)N2CCC(Nc3nc(N)c(C(=O)c4c(F)cccc4F)s3)CC2)cn1 [Example I12, 1-(4-Amino-2-{1-[6-(3-dimethylamino-propyl)-pyridine-3-sulfonyl]-piperidin-4-ylamino}-thiazol-5-yl)-1-(2,6-difluoro-phenyl)-methanone] | 300 | 3400 | 1.3 | 1.1 | – |
| Nc1nc(NC2CCN(S(=O)(=O)c3ccc(CNC(=O)c4ccccc4)s3)CC2)sc1C(=O)c1c(F)cccc1F [Example P40] | – | – | – | – | HCT-116 % Inhibition at 0.1 μM [1, 6]: 7%; HCT-116 % Inhibition at 0.25 μM ([1]; HCT-116, Table 3): 33%; CDK2 % Inhibition at 0.03 μM ([2]; 0.03 μM compound, Table 3): 61%; CDK4 % Inhibition at 0.03 μM ([3]; 0.03 μM compound, Table 3): 64% |
| Nc1nc(NC2CCN(S(=O)(=O)c3ccc(OCCn4ccnc4)nc3)CC2)sc1C(=O)c1c(F)cccc1F [Example H9, 1-(4-Amino-2-{1-[6-(2-imidazol-1-yl-ethoxy)-pyridine-3-sulfonyl]-piperidin-4-ylamino}-thiazol-5-yl)-1-(2,6-difluoro-phenyl)-methanone Hydrochloride] | 480 | 3100 | < 0.5 | 1.2 | – |
| Cn1cnc(-c2ccc(S(=O)(=O)N3CCC(Nc4nc(N)c(C(=O)c5c(F)cccc5F)s4)CC3)cn2)c1 [Example I5, Hydrochloride] | 80 | 500 | 5.1 | 0.67 | – |
| Nc1nc(NC2CCN(S(=O)(=O)c3ccc(CCCN4CCCC4)nc3)CC2)sc1C(=O)c1c(F)cccc1F [Example I13, 1-(4-Amino-2-{1-[6-(3-pyrrolidin-1-yl-propyl)-pyridine-3-sulfonyl]-piperidin-4-ylamino}-thiazol-5-yl)-1-(2,6-difluoro-phenyl)-methanone Trifluoroacetic Acid Salt] | 280 | 600 | 1.3 | 0.45 | – |
| CN(C)CCS(=O)(=O)N1CCC(Nc2nc(N)c(C(=O)c3c(F)cccc3F)s2)CC1 [Example F26, {4-Amino-2-[1-(2-dimethylamino-ethanesulfonyl)-piperidin-4-ylamino]-thiazol-5-yl}-(2,6-difluoro-phenyl)-methanone] | 280 | 650 | 15 | 2.2 | – |
| CCOC(=O)C(Cc1ccccc1)NC(=O)N1CCC(Nc2nc(N)c(C(=O)c3c(F)cccc3F)s2)CC1 (stereo not shown) [Example O75] | – | – | – | – | HCT-116 % Inhibition at 0.25 μM ([1]; HCT-116, Table 2): 41%; CDK2 % Inhibition At 0.03 μM ([2]; 0.03 μM compound): 25%; CDK4 % Inhibition at 0.03 μM ([3]; 0.03 μM compound, Table 2): 10% |
| COc1ccc(S(=O)(=O)N2CCC(Nc3nc(N)c(C(=O)c4c(F)cccc4F)s3)CC2)cn1 [Example F22, 1-{4-Amino-2-[1-(6-methoxy-pyridine-3-sulfonyl)-piperidin4-ylamino]-thiazol-5-yl}-1-(2,6-difluoro-phenyl)-methanone] | 80 | 230 | 0.84 | 1.2 | – |
| Nc1nc(NC2CCN(C(=O)c3cccc(Cl)c3)CC2)sc1C(=O)c1c(F)cccc1F [Example R132] | – | – | – | – | HCT-116 % Inhibition at 0.1 μM ([1]; HCT-116 cells, at 0.1 μM): 15%; HCT-116 5 Inhibition at 0.25 μM ([1]; HCT-116 cells): 60; CDK2 % Inhibition at 0.03 μM ([2]; at 0.03 μM): 28%; CDK4 % Inhibition at 0.03 μM ([3]; at 0.03 μM): 55% |
| Nc1nc(NC2CCN(C(=S)Oc3ccccc3)CC2)sc1C(=O)c1c(F)cccc1F [Example Q83] | – | – | – | – | HCT-116 % Inhibition at 0.1 μM [1, 7]: 2%; HCT-116 % Inhibition at 0.25 μM ([1]; HCT-116, Table 4): 25%; CDK2 % Inhibition at 0.03 μM ([2]; 0.03 μM compound, Table 4): 72%; CDK4 % Inhibition at 0.03 μM ([3]; 0.03 μM compound, Table 4): 55% |
| CN(C)CCN(C)c1ccc(S(=O)(=O)N2CCC(Nc3nc(N)c(C(=O)c4c(F)cccc4F)s3)CC2)cn1 [Example G1, Trifluoroacetic Acid Salt] | 120 | > 500 | 1.4 | 0.64 | – |
| Nc1nc(NC2CCN(C(=O)Oc3ccc(Cl)cc3)CC2)sc1C(=O)c1c(F)cccc1F [Example C3, 4-[4-Amino-5-(2,6-difluoro-benzoyl)-thiazol-2-ylamino]-piperidine-1-carboxylic Acid 4-Chloro-phenyl Ester] | – | – | 17 | 3.7 | IC50 ([1]; read-out: HCT-116 IC50, first HCT-116 column (c4)): 330 nM; IC50 ([1]; read-out: HCT-116 IC50, second HCT-116 column (c5)): 1200 nM |
| COC(=O)CCCCC(=O)N1CCC(Nc2nc(N)c(C(=O)c3c(F)cccc3F)s2)CC1 [Example R4] | – | – | – | – | HCT-116 % Inhibition at 0.1 μM ([1]; HCT-116 cells, at 0.1 μM): 3%; HCT-116 5 Inhibition at 0.25 μM ([1]; HCT-116 cells): 47; CDK2 % Inhibition at 0.03 μM ([2]; at 0.03 μM): −5%; CDK4 % Inhibition at 0.03 μM ([3]; at 0.03 μM): 32% |
| COc1ccc(Cl)cc1S(=O)(=O)N1CCC(Nc2nc(N)c(C(=O)c3c(F)cccc3F)s2)CC1 [Example P56] | – | – | – | – | HCT-116 % Inhibition at 0.1 μM [1, 6]: 20%; HCT-116 % Inhibition at 0.25 μM ([1]; HCT-116, Table 3): 34%; CDK2 % Inhibition at 0.03 μM ([2]; 0.03 μM compound, Table 3): 21%; CDK4 % Inhibition at 0.03 μM ([3]; 0.03 μM compound, Table 3): 26% |
| CCN1CCN(CCCS(=O)(=O)N2CCC(Nc3nc(N)c(C(=O)c4c(F)cccc4F)s3)CC2)CC1 [Example K15, 1-(4-Amino-2-{1-[3-(4-ethylpiperazin-1-yl)propane-1-sulfonyl]-piperidin-4-ylamino}-thiazol-5-yl)-1-(2,6-difluoro-phenyl)-methanone.] | 1300 | 5000 | 8.7 | 2.5 | – |
| CN1CCC(Nc2nc(N)c(C(=O)c3c(F)cccc3F)s2)CC1 [Example A4, 1-[4-Amino-2-(1-methyl-piperidin-4-ylamino)-thiazol-5-yl]-1-(2,6-difluoro-phenyl)-methanone] | 1700 | 3800 | 12000 | 930 | – |
| Nc1nc(NC2CCN(S(=O)(=O)c3ccc(N4CCC[C@@H]4CO)nc3)CC2)sc1C(=O)c1c(F)cccc1F [Example G13, 1-{4-Amino-2-{1-[6-(2R-hydroxymethyl-pyrrolidin-1-yl)-pyridine-3-sulfonyl]-piperidin-4-ylamino}-thiazol-5-yl)-1-(2,6-difluoro-phenyl)-methanone Trifluoroacetic Acid Salt] | 170 | 3900 | < 1 | 0.64 | – |
| CN(C)[C@@H](Cc1ccccc1)C(=O)N1CCC(Nc2nc(N)c(C(=O)c3c(F)cccc3F)s2)CC1 [Example D4, (4-[4-Amino-5-(2,6-difluoro-benzoyl)-thiazol-2-ylamino}-piperidin-1-yl)-2S-dimethylamino-phenyl-propan-1-one] | > 5000 | – | 2600 | 460 | – |
| Nc1nc(NC2CCN(C(=O)c3ccccc3OC(F)(F)F)CC2)sc1C(=O)c1c(F)cccc1F [Example R23] | – | – | – | – | HCT-116 % Inhibition at 0.1 μM ([1]; HCT-116 cells, at 0.1 μM): 2%; HCT-116 5 Inhibition at 0.25 μM ([1]; HCT-116 cells): 38; CDK2 % Inhibition at 0.03 μM ([2]; at 0.03 μM): −6%; CDK4 % Inhibition at 0.03 μM ([3]; at 0.03 μM): 34% |
| Nc1nc(NC2CCN(S(=O)(=O)c3cc(Cl)sc3Cl)CC2)sc1C(=O)c1c(F)cccc1F [Example F13, 1-{4-Amino-2-[1-(2,5-dichloro-thiophene-3-sulfonyl)-piperidin-4-ylamino]-thiazol-5-yl}-1-(2,6-difluoro-phenyl)-methanone] | 610 | 2600 | 8.7 | 5.8 | – |
| CC1C=CC(C)N1CCS(=O)(=O)N1CCC(Nc2nc(N)c(C(=O)c3c(F)cccc3F)s2)CC1 (mixture of isomers) [Example K27, (4-Amino-2-{1-[2-(cis/trans-2,5-dimethyl-2,5-dihydro-pyrrol-1-yl)-ethanesulfonyl]-piperidin-4-ylamino}-thiazol-5-yl)-(2,6-difluoro-phenyl)-methanone Trifluoroacetic Acid Salt.] | 230 | 800 | 11 | 3.5 | – |
| Nc1nc(NC2CCN(C(=O)c3cccc(Br)c3)CC2)sc1C(=O)c1c(F)cccc1F [Example Q18] | – | – | – | – | HCT-116 % Inhibition at 0.1 μM [1, 7]: 59%; HCT-116 % Inhibition at 0.25 μM ([1]; HCT-116, Table 4): 92%; CDK2 % Inhibition at 0.03 μM ([2]; 0.03 μM compound, Table 4): 44%; CDK4 % Inhibition at 0.03 μM ([3]; 0.03 μM compound, Table 4): 73% |
| Nc1nc(NC2CCN(S(=O)(=O)c3cccc4nsnc34)CC2)sc1C(=O)c1c(F)cccc1F [Example P62] | – | – | – | – | HCT-116 % Inhibition at 0.1 μM [1, 6]: 22%; HCT-116 % Inhibition at 0.25 μM ([1]; HCT-116, Table 3): 26%; CDK2 % Inhibition at 0.03 μM ([2]; 0.03 μM compound, Table 3): 74%; CDK4 % Inhibition at 0.03 μM ([3]; 0.03 μM compound, Table 3): 70% |
| COc1ccc(NC(=O)N2CCC(Nc3nc(N)c(C(=O)c4c(F)cccc4F)s3)CC2)cc1 [Example O84] | – | – | – | – | HCT-116 % Inhibition at 0.25 μM ([1]; HCT-116, Table 2, 0.25 µM): 42%; CDK2 % Inhibition At 0.03 μM ([2]; 0.03 μM compound, 0.03 µM): 23%; CDK4 % Inhibition at 0.03 μM ([3]; 0.03 μM compound, Table 2, 0.03 µM): 14% |
| Cc1cccc(NC(=O)N2CCC(Nc3nc(N)c(C(=O)c4c(F)cccc4F)s3)CC2)c1 [Example O17] | – | – | – | – | HCT-116 % Inhibition at 0.25 μM ([1]; HCT-116, Table 2): 8%; CDK2 % Inhibition At 0.03 μM ([2]; 0.03 μM compound): 32%; CDK4 % Inhibition at 0.03 μM ([3]; 0.03 μM compound, Table 2): 6% |
| Nc1nc(NC2CCN(C(=O)c3ccc(C(F)(F)F)cc3)CC2)sc1C(=O)c1c(F)cccc1F [Example R152] | – | – | – | – | HCT-116 % Inhibition at 0.1 μM ([1]; HCT-116 cells, at 0.1 μM): 0%; HCT-116 5 Inhibition at 0.25 μM ([1]; HCT-116 cells): 40; CDK2 % Inhibition at 0.03 μM ([2]; at 0.03 μM): 17%; CDK4 % Inhibition at 0.03 μM ([3]; at 0.03 μM): 41% |
